Source: patent publication US8673578B2, “Methods of identifying antagonists of the hTAS2R46 bitter taste receptor” (Deutsches Institut für Ernahrungsforschung Potsdam-Rehbrücke, priority 2009, dated 2014)

What was measured:
Assay in all cases: calcium imaging (FLIPR), effect on agonist-dependent hTAS2R activation
Type in all cases: cell-based
hTAS2R7 = target: T1, hTAS2R7 (Homo sapiens, UniProt Q9NYW3); conditions: 100 μM test substance; agonist quinine sulfate 10 μM; agonist alone = 100%
T1 construct: expressed in transfected cells; host or cells: HEK293T cells stably expressing chimeric Gα16gust44, transient transfection
T1 sequence (Q9NYW3 1-318): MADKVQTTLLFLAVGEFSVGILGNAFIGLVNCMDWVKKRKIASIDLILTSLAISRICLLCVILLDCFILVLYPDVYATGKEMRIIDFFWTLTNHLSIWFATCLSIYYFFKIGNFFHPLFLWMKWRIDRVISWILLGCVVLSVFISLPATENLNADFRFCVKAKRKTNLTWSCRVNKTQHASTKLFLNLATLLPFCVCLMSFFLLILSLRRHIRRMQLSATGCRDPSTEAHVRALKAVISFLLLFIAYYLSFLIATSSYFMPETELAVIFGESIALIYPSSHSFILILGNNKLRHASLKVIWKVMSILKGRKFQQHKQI
Text: (§1) Human TAS2R cDNAs were cloned into pcDNA5/FRT (Invitrogen, San Diego, Calif.). For adequate plasma membrane targeting, receptor cDNA was fused to the aminoterminal sequence of the rat somatostatin type 3 receptor at the aminoterminus of the recombinant protein (Bufe, B., T. Hofmann, et al. (2002) Nat Genet. 32(3): 397-401). For immunological detection, the Herpes simplex Glycoprotein D epitope was supplemented at the carboxyterminus of the recombinant protein (Bufe et al., supra). Receptor constructs were transiently transfected into HEK293T cells stably expressing the chimeric G protein subunit Gα16gust44 (Ueda, T., S. Ugawa, et al. (2003) J Neurosci 23(19): 7376-80) using Lipofectamine 2000 (Invitrogen, San Diego, Calif.) in 96-well plates.
(§2) Calcium Imaging experiments were performed 24 h after transfection using a Fluorometric Imaging Plate Reader (FLIPR, Molecular Devices, Munich, Germany) as previously described (Bufe et al., supra). Taste active compounds were ordered from Sigma (Sigma-Aldrich, Taufkirchen, Germany). Absinthin, 3β hydroxy dihydro costunolide and 3β hydroxy pelenolide were kindly provided by Giovanni Appendino (Novara, Italy). Test substances were directly dissolved in C1 buffer (130 mM NaCl, 10 mM Na-Hepes, 10 mM Glucose, 5 mM KCl, 2 mM CaCl2, pH 7.4) or in DMSO, respectively. DMSO stocks were further diluted in C1 buffer not exceeding a final DMSO concentration of 1% on the cells. For the investigation of antagonistic effects, test substances were premixed. Agonists were applied at concentrations corresponding to EC90, except where indicated otherwise (Table 2). Data were collected from 3 independent experiments performed in quadruplicates and processed with SigmaPlot (SPSS, Chicago, Ill.). Fluorescence signals after application of test substances were corrected for and normalized to background fluorescence (ΔF/F═(F−F0)/F0), and baseline noise was subtracted. Calculation of dose-response curves was done by nonlinear regression using the function f(y)=((a−d)/(1+(x/EC50)^nH)+d).
(§3) To test 3β hydroxy dihydro costunolide and 3β hydroxy pelenolide for antagonistic or enhancing effects on hTAS2R activation, transfected cells were stimulated with cognate agonist bitter substances at EC90 concentrations (Table 2) without 3β hydroxy dihydro costunolide and 3β hydroxy pelenolide. The cellular responses after application of the agonist alone were set to 100%, responses obtained after coapplication of agonists and 100 μM 3β hydroxy dihydro costunolide or 100 μM 3β hydroxy pelenolide are shown relative to this value (FIG. 4).

hTAS2R5 = target: T2, hTAS2R5 (Homo sapiens, UniProt Q9NYW4); conditions: 100 μM test substance; agonist denatonium saccharide 3000 μM; agonist alone = 100%
T2 construct: expressed in transfected cells; host or cells: HEK293T cells stably expressing chimeric Gα16gust44, transient transfection
T2 sequence (Q9NYW4 1-299): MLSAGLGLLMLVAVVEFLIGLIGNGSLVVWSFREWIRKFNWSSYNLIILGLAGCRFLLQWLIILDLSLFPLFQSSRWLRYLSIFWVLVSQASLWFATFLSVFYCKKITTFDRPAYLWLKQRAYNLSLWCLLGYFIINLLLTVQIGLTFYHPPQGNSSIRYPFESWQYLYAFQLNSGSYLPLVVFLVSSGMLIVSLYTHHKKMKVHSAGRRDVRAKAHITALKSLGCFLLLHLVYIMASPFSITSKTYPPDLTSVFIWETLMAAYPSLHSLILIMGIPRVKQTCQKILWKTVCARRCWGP
Text: as §1, §2, §3

hTAS2R46 = target: T3, hTAS2R46 (Homo sapiens, UniProt P59540); conditions: for agonist-dependent response of hTAS2R46-expressing cells on coapplication: 100 μM test substance, agonist picrotoxinin 300 μM (EC90), agonist alone = 100%
T3 construct: expressed in transfected cells; host or cells: HEK293T cells stably expressing chimeric Gα16gust44, transient transfection
T3 sequence (P59540 1-309): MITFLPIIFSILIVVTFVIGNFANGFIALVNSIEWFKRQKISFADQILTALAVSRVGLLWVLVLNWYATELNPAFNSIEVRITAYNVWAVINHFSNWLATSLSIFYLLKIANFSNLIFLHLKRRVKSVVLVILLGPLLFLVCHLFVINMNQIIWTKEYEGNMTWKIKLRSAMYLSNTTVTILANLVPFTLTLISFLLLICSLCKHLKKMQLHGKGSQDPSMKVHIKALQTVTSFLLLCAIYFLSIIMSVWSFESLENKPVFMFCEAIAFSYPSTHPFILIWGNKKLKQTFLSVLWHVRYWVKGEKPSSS
Text: as §1, §2, §3
Next we determined concentrations of half-maximal inhibition of TAS2R46. FIG. 5 illustrates the concentration-inhibition curves of TAS2R46 activated by picrotoxinin in the presence of various concentrations of 3β hydroxy dihydro costunolide or 3β hydroxy pelenolide. […] In agreement with the data described above the costunolide analog appears to be more potently inhibiting TAS2R46 than the pelenolide analog. […] As expected 3β hydroxy pelenolide has to be employed at ˜6 fold higher concentrations than 3β hydroxy dihydro costunolide to achieve 50% receptor inhibition.
Next, we established concentration-response curves for strychnine at TAS2R46 in the presence of various concentrations of 3β hydroxy dihydro costunolide.
Finally, the impact of chemical modifications on the antagonistic properties of 3β hydroxy dihydro costunolide on hTAS2R46-expressing cells was studied. Derivatives of 3β hydroxy dihydro costunolide with site-directed modifications at C3 and C11 were generated (FIG. 7A) These derivatives were tested for activation or inhibition of hTAS2R46-expressing cells in the absence or presence of the agonist strychnine (3 μM) and half-maximum effective concentrations (EC50) or half-maximal inhibitory concentrations were calculated (FIG. 7B).

[1] = agonist denatonium benzoate 300 μM

| SMILES | agonist-dependent response of hTAS2R7-expressing cells on coapplication (hTAS2R7) | agonist-dependent response of hTAS2R5-expressing cells on coapplication (hTAS2R5) | strychnine response amplitude at TAS2R46 with increasing inhibitor concentrations (hTAS2R46; 0, 10, 30, 100 μM inhibitor) | change of the strychnine EC50 value at hTAS2R46 on coapplication (hTAS2R46; 100 μM inhibitor, P<0.05, one-way ANOVA) | agonist-dependent response of hTAS2R46-expressing cells on coapplication (hTAS2R46) | IC50 (hTAS2R46; agonist absinthin 100 μM) | IC50 (hTAS2R46; agonist andrographolide 30 μM) | IC50 (hTAS2R46; [1]) | IC50 (hTAS2R46; agonist picrotoxinin 300 μM) | IC50 (hTAS2R46; agonist strychnine 3 μM) | action on hTAS2R46-expressing cells (inhibition) (hTAS2R46; presence of agonist strychnine 3 μM) | mode of action of the inhibitor at TAS2R46 (hTAS2R46; strychnine concentration-response curves with 0, 10, 30, 100 μM inhibitor) | fold higher concentration than 3β hydroxy dihydro costunolide to achieve 50% receptor inhibition (hTAS2R46; TAS2R46) |
| --- | --- | --- | --- | --- | --- | --- | --- | --- | --- | --- | --- | --- | --- |
| C/C1=C\C[C@H](O)/C(C)=C/[C@H]2OC(=O)[C@@H](C)C2CC1 (stereo partly drawn) [3β hydroxy dihydro costunolide] | increased responses | increased responses | largely unaffected | significant increase | complete block | 14.1 ± 1.35 µM | 4.93 ± 0.54 µM | 6.78 ± 2.33 µM | 4.81 ± 1.43 µM | 15.3 ± 5.85 µM | antagonists | competitive |  |
| C/C1=C\C[C@H](O)[C@@H](C)C[C@H]2OC(=O)[C@@H](C)[C@@H]2CC1 [3β hydroxy pelenolide] |  |  |  |  | moderately attenuating effect | 57.8 ± 24.9 µM | 44.5 ± 34.5 µM | 51.4 ± 28.8 µM | 22.9 ± 3.4 µM | 84.9 ± 50.2 µM |  |  | ~6 fold |
